# Experimental data taken from the NIST ThermoML archive (doi:10.1016/j.jct.2005.05.012).
# ± gives the expanded uncertainty stated by the source.
# How the values were obtained:
# [1] = refractive index (other wavelength) (dimensionless); xn = mol fraction of the nth substance listed; details: 305.5 K, 101 kPa, Liquid, Wavelength=632.8 nm, Newport model 1825-C
# [2] = refractive index (other wavelength) (dimensionless); details: 101 kPa, Liquid, Wavelength=632.8 nm, Newport model 1825-C
structure (smiles),measurement,setting,value
CCCCCCCCCCCCCCCCCC [octadecane] + N#Cc1ccccc1,refractive index,[1]; x2 = 0.0996,1.4316 ± 0.0002
same,refractive index,[1]; x2 = 0.1986,1.4362 ± 0.0002
same,refractive index,[1]; x2 = 0.2992,1.4398 ± 0.0002
same,refractive index,[1]; x2 = 0.4025,1.4447 ± 0.0002
same,refractive index,[1]; x2 = 0.4955,1.4499 ± 0.0002
same,refractive index,[1]; x2 = 0.5947,1.4567 ± 0.0002
same,refractive index,[1]; x2 = 0.7985,1.4777 ± 0.0002
same,refractive index,[1]; x2 = 0.8876,1.4917 ± 0.0002
N#Cc1ccccc1 [benzonitrile],refractive index,[2]; 301.4 K,1.521 ± 0.0002
same,refractive index,[2]; 302.96 K,1.5202 ± 0.0002
same,refractive index,[2]; 304.8 K,1.5194 ± 0.0002
same,refractive index,[2]; 306.42 K,1.5186 ± 0.0002
same,refractive index,[2]; 307.83 K,1.5179 ± 0.0002
same,refractive index,[2]; 309.65 K,1.517 ± 0.0002
CCCCCCCCCCCCCCCCCC [octadecane],refractive index,[2]; 301.97 K,1.4339 ± 0.0002
same,refractive index,[2]; 303.42 K,1.4333 ± 0.0002
same,refractive index,[2]; 304.68 K,1.4328 ± 0.0002
same,refractive index,[2]; 306.38 K,1.4321 ± 0.0002
same,refractive index,[2]; 307.84 K,1.4315 ± 0.0002
same,refractive index,[2]; 309.28 K,1.4307 ± 0.0002
